Measurements as given in ChEMBL document CHEMBL4715760, “Balancing potency, metabolic stability and permeability in pyrrolopyrimidine-based EGFR inhibitors” (Eur J Med Chem, 2016).

Tests used:
[1] = biological target: T1, Epidermal growth factor receptor (Homo sapiens, UniProt P00533); assay: Inhibition of human EGFR using poly[Glu:Tyr] (4:1) as substrate in presence of [gamma33P]ATP by radiometric HotSpot assay
BaF3 = assay: Antiproliferative activity against mouse Ba/F3 cells expressing EGFR-L858R mutant assessed as inhibition of cell growth incubated for 48 hrs by XTT assay; assay type: functional, cell-based; conditions: BaF3, 48 h
[2] = biological target: T1, Epidermal growth factor receptor; assay: Inhibition of EGFR (unknown origin) using Tyr 04 peptide as substrate incubated for 1 hr by Z'-LYTE assay
[3] = biological target: Aurora kinase B (Homo sapiens) (UniProt Q96GD4); assay: Inhibition of recombinant full length His-tagged human AURKB expressed in baculovirus expression system at 500 nM using Ser/Thr 01 as substrate incubated for 1 hr in presence of ATP at its Km concentration by Z'-LYTE assay relative to control
Aurora kinase B (Homo sapiens), sequence (Q96GD4 whole entry): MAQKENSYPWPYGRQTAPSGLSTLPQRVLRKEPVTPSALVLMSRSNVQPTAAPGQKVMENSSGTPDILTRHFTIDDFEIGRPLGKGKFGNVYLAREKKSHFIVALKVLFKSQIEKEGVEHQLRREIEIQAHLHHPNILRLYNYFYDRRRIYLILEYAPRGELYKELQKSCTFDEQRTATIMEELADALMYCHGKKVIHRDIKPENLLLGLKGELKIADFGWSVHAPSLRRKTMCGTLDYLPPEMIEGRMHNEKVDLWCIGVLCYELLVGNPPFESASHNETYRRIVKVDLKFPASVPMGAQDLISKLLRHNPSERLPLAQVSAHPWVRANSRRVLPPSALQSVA

[4] = biological target: Tyrosine-protein kinase CSK (Homo sapiens) (UniProt P41240); assay: Inhibition of recombinant full length human His-tagged CSK expressed in Escherichia coli expression system at 500 nM using Tyr 02 peptide as substrate incubated for 1 hr in presence of ATP at its Km concentration by Z'-LYTE assay relative to control
Tyrosine-protein kinase CSK (Homo sapiens), sequence (P41240 2-450 limits assumed): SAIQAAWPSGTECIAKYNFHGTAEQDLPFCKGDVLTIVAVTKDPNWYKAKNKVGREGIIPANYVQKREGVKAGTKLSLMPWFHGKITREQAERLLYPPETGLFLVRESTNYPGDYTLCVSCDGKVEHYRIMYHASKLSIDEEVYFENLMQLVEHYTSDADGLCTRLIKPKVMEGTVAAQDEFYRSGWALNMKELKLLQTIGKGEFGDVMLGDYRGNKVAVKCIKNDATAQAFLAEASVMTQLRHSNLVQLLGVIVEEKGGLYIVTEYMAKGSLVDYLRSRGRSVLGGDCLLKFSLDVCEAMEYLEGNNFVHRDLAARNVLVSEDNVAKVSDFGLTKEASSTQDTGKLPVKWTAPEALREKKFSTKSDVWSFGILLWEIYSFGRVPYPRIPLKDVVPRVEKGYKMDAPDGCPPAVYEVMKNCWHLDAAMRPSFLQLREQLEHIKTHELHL

[5] = biological target: Receptor tyrosine-protein kinase erbB-4 (Homo sapiens) (UniProt Q15303); assay: Inhibition of recombinant human N-terminal GST-tagged ERBB4 catalytic domain (708 to 993 residues) expressed in baculovirus expression system at 500 nM using Tyr 01 peptide as substrate incubated for 1 hr in presence of ATP at its Km concentration by Z'-LYTE assay relative to control
Receptor tyrosine-protein kinase erbB-4 (Homo sapiens), sequence (Q15303 whole entry, the tested form may be a part): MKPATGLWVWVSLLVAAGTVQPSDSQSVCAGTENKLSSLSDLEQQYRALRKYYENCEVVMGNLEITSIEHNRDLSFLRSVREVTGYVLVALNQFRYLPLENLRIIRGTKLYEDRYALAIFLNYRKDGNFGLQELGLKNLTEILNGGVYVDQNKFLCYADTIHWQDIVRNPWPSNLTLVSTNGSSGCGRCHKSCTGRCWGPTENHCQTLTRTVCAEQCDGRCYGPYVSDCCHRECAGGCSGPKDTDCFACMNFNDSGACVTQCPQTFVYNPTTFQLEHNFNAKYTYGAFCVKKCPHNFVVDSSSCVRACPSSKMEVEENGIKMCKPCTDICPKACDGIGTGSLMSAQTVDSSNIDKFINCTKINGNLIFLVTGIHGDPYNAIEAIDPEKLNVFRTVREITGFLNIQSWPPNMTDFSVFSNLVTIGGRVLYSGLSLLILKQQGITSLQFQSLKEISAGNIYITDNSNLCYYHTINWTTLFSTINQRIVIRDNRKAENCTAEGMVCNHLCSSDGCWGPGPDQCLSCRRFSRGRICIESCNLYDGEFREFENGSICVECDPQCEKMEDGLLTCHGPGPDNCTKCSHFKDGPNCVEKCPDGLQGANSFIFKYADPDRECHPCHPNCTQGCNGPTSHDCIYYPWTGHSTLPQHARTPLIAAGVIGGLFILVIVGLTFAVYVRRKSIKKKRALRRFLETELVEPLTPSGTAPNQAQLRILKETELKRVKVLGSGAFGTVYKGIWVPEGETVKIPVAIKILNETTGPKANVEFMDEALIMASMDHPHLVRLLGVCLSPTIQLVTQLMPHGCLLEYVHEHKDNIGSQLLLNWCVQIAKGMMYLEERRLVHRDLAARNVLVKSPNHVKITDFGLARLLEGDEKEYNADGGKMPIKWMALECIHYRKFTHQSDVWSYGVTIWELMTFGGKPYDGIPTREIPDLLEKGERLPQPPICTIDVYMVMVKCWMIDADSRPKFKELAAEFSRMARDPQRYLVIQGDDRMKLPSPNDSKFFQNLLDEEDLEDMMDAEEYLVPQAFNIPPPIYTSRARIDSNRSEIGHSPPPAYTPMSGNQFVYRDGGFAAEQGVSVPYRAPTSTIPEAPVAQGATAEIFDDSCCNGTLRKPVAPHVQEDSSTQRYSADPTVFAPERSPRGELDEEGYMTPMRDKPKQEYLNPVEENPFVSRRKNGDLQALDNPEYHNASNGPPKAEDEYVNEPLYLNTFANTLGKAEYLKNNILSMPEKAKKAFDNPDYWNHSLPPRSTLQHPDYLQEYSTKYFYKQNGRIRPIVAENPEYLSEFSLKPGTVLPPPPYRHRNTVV

[6] = biological target: Vascular endothelial growth factor receptor 1 (Homo sapiens) (UniProt P17948); assay: Inhibition of recombinant human GST-tagged FLT1 catalytic domain (781 to 1338 residues) expressed in baculovirus expression system at 500 nM using Tyr 04 peptide as substrate incubated for 1 hr in presence of ATP at its Km concentration by Z'-LYTE assay relative to control
[7] = biological target: Tyrosine-protein kinase Fyn (Homo sapiens) (UniProt P06241); assay: Inhibition of recombinant human C-terminal His-tagged full length FYN expressed in baculovirus expression system at 500 nM using Tyr 02 peptide as substrate incubated for 1 hr in presence of ATP at its Km concentration by Z'-LYTE assay relative to control
[8] = biological target: Tyrosine-protein kinase HCK (Homo sapiens) (UniProt P08631); assay: Inhibition of recombinant full length N-terminal GST-tagged human HCK expressed in baculovirus expression system at 500 nM using Tyr 02 as substrate incubated for 1 hr in presence of ATP at its Km concentration by Z'-LYTE assay relative to control
Tyrosine-protein kinase HCK (Homo sapiens), sequence (P08631 2-526 limits assumed): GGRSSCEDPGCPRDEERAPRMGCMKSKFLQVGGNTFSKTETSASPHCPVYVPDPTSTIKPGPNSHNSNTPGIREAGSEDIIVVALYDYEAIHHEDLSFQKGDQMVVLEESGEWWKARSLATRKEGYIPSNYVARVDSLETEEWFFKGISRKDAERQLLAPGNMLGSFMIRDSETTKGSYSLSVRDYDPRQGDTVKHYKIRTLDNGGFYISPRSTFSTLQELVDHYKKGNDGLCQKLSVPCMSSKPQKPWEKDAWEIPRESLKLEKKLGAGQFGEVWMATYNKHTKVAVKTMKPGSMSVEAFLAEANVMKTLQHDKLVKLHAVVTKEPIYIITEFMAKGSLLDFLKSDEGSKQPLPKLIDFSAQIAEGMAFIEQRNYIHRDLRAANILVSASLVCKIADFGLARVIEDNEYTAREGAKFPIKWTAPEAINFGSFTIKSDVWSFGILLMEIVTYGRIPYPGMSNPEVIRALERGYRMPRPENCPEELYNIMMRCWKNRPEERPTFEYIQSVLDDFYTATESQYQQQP

[9] = biological target: Tyrosine-protein kinase Lyn (Homo sapiens) (UniProt P07948); assay: Inhibition of recombinant full length human GST-tagged LYN-A expressed in insect cells at 500 nM using Tyr 02 as substrate incubated for 1 hr in presence of ATP at its Km concentration by Z'-LYTE assay relative to control
[10] = biological target: Dual specificity mitogen-activated protein kinase kinase 1 (Homo sapiens) (UniProt Q02750); assay: Inhibition of recombinant full length human His-tagged MAP2K1 expressed in baculovirus expression system at 500 nM using Ser/Thr 03 as substrate incubated for 1 hr in presence of ATP at its Km concentration by Z'-LYTE assay relative to control
Dual specificity mitogen-activated protein kinase kinase 1 (Homo sapiens), sequence (Q02750 whole entry, the tested form may be a part): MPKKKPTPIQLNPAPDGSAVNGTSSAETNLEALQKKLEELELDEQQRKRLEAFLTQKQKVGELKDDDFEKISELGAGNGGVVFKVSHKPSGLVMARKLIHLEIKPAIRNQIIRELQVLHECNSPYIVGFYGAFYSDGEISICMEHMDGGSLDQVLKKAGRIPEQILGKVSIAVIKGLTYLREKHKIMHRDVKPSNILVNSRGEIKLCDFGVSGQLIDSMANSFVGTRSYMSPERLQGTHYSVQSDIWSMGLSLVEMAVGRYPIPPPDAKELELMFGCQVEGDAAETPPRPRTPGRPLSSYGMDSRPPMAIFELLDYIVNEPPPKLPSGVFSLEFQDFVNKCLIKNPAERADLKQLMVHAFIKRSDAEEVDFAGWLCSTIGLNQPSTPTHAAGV

[11] = biological target: Platelet-derived growth factor receptor alpha (Homo sapiens) (UniProt P16234); assay: Inhibition of recombinant human GST-tagged PDGFRalpha (550 to 1089 residues) expressed in baculovirus expression system at 500 nM using Tyr 04 as substrate incubated for 1 hr in presence of ATP at its Km concentration by Z'-LYTE assay relative to control
[12] = biological target: Serine/threonine-protein kinase pim-2 (Homo sapiens) (UniProt Q9P1W9); assay: Inhibition of recombinant full length GST-tagged human PIM2 expressed in baculovirus expression system at 500 nM using Ser/Thr 07 as substrate incubated for 1 hr in presence of ATP at its Km concentration by Z'-LYTE assay relative to control
Serine/threonine-protein kinase pim-2 (Homo sapiens), sequence (Q9P1W9 whole entry, looked up): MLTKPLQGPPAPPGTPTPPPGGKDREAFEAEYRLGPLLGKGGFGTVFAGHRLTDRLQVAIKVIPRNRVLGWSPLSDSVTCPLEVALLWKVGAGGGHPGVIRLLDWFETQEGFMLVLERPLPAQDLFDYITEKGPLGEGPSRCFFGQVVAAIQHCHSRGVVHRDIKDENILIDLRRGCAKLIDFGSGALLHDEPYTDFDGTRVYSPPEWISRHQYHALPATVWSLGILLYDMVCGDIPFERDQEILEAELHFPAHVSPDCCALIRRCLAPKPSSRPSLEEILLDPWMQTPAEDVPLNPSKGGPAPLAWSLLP

[13] = biological target: Focal adhesion kinase 1 (Homo sapiens) (UniProt Q05397); assay: Inhibition of recombinant full length human GST-tagged PTK2 expressed in baculovirus expression system at 500 nM using Tyr 07 as substrate incubated for 1 hr in presence of ATP at its Km concentration by Z'-LYTE assay relative to control
[14] = biological target: Tyrosine-protein kinase Yes (Homo sapiens) (UniProt P07947); assay: Inhibition of full length recombinant GST-tagged human YES1 expressed in baculovirus expression system at 500 nM using Tyr 02 as substrate incubated for 1 hr in presence of ATP at its Km concentration by Z'-LYTE assay relative to control
[15] = biological target: T1, Epidermal growth factor receptor; conditions: dose 100.0 nM, time 1.0 hrs
[16] = biological target: Tyrosine-protein kinase Lck (Homo sapiens) (UniProt P06239); conditions: dose 500.0 nM, time 1.0 hrs
Tyrosine-protein kinase Lck (Homo sapiens), sequence (P06239 2-509 limits assumed): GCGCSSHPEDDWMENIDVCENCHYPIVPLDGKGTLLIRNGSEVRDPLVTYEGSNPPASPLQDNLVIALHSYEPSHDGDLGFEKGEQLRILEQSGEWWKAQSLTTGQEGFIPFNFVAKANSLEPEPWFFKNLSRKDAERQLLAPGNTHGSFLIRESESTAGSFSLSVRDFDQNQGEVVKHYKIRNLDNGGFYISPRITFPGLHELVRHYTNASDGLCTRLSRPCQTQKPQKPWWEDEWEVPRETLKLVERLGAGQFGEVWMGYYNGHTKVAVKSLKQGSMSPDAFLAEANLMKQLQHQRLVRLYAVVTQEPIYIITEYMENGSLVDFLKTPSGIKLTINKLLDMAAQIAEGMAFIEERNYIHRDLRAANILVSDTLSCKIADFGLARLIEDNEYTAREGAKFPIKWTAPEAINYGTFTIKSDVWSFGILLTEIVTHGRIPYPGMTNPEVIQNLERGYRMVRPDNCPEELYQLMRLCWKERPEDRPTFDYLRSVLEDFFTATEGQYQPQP

[17] = Apparent permeability from apical to basolateral side in human Caco2 cells at 10 uM measured for 120 mins by LC-MS/MS analysis; conditions: Caco-2
[18] = biological target: Voltage-gated inwardly rectifying potassium channel KCNH2 (Homo sapiens, UniProt Q12809); assay: Inhibition of human ERG expressed in CHO cells at -80 mV holding potential by IonWorks patch-clamp electrophysiology assay
PC-9 = assay: Antiproliferative activity against human PC9 cells measured for 96 hrs by sytox green dye staining based proliferation assay; assay type: functional, cell-based; conditions: PC-9, 96 h
A549 = assay: Antiproliferative activity against human A549 cells assessed as inhibition of cell growth incubated for 72 hrs by Cell Titer Glo luminescent cell viability assay; assay type: functional, cell-based; conditions: A549, 72 h
AU565 = assay: Antiproliferative activity against human AU565 cells incubated for 72 hrs by ATPlite luminescence assay; assay type: functional, cell-based; conditions: AU565, 72 h
C-33-A = assay: Antiproliferative activity against human C-33A cells incubated for 72 hrs by ATPlite luminescence assay; assay type: functional, cell-based
CAL-27 = assay: Antiproliferative activity against human CAL27 cells; assay type: functional, cell-based
FaDu = assay: Antiproliferative activity against human FaDU cells assessed as inhibition of cell growth incubated for 72 hrs by Cell Titer Glo luminescent cell viability assay; assay type: functional, cell-based
K562 = assay: Antiproliferative activity against human K562 cells assessed as inhibition of cell growth incubated for 72 hrs by Cell Titer Glo luminescent cell viability assay; assay type: functional, cell-based; conditions: K562, 72 h
BXPC-3 = assay: Antiproliferative activity against human BXPC-3 cells measured for 96 hrs by sytox green dye staining based proliferation assay; assay type: functional, cell-based; conditions: BXPC-3, 96 h
[19] = biological target: Inhibitor of nuclear factor kappa-B kinase subunit beta (Homo sapiens) (UniProt O14920); assay: Inhibition of recombinant human full-length GST-tagged IKBKB expressed in baculovirus expression system at 500 nM using Ser/Thr 05 as substrate incubated for 1 hr in presence of ATP at its Km concentration by Z'-LYTE assay relative to control

T1 sequence (P00533 whole entry): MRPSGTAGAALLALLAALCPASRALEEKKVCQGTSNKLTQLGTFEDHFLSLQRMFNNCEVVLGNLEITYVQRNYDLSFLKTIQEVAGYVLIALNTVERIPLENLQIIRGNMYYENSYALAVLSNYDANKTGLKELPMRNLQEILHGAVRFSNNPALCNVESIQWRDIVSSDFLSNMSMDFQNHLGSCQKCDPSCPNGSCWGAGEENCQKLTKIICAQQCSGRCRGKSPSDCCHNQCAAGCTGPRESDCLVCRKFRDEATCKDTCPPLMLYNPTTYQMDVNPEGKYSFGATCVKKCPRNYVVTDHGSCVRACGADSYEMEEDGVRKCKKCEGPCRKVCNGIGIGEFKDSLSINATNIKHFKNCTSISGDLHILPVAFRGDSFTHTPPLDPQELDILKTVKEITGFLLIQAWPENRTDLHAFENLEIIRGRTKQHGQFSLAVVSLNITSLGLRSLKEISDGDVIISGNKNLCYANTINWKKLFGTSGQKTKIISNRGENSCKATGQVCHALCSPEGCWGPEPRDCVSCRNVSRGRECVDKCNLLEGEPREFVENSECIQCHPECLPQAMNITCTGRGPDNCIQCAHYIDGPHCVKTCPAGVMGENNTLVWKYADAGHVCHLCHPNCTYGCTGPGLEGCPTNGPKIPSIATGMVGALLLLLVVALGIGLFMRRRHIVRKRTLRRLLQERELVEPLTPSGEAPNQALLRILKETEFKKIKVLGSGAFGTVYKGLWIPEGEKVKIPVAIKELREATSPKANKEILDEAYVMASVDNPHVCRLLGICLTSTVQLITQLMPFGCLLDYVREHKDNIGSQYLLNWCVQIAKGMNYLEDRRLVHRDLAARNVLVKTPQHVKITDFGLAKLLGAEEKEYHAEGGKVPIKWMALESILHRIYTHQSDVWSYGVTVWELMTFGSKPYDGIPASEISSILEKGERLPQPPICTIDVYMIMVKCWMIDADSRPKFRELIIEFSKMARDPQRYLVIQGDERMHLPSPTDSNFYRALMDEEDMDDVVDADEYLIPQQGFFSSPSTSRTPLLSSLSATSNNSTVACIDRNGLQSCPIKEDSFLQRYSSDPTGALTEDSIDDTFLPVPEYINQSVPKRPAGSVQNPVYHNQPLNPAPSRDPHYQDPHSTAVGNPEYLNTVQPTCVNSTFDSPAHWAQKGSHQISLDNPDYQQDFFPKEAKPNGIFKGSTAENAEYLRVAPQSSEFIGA

IC50 [1] [nM] | IC50 (BaF3) [nM] | IC50 [2] [nM] | inhibition [3] [%] | inhibition [4] [%] | inhibition [5] [%] | inhibition [6] [%] | inhibition [7] [%] | inhibition [8] [%] | inhibition [9] [%] | inhibition [10] [%] | inhibition [11] [%] | inhibition [12] [%] | inhibition [13] [%] | inhibition [14] [%] | inhibition [15] [%] | inhibition [16] [%] | IC50 (A549) [nM] | Compound | IC50 (PC-9) [nM] | IC50 (AU565) [nM] | further results
0.4 | 134 | 0.8 | 5 | 6 | 79 | 5 | 27 | 30 | 52 | -4 | 6 | 5 | -2 | 68 | 100 | 17 | – | COc1ccccc1-c1cc2c(N[C@H](CO)c3ccccc3)ncnc2[nH]1 | – | – | –
0.2 | 98 | – | 1 | 17 | 62 | 3 | 34 | 27 | 14 | 10 | -8 | 2 | 9 | 56 | – | 26 | – | CCOc1ccccc1-c1cc2c(N[C@H](CO)c3ccccc3)ncnc2[nH]1 | – | – | –
0.8 | – | 0.4 | 13 | 9 | 51 | 8 | 27 | 29 | 47 | -8 | – | 9 | – | 65 | 99 | 13 | > 100000 | OC[C@@H](Nc1ncnc2[nH]c(-c3ccccc3)cc12)c1ccccc1 | < 100 | 2500 | IC50 (C-33-A): 700 nM; IC50 (CAL-27): 2700 nM; IC50 (FaDu): > 33000 nM; IC50 (K562): 15000 nM; IC50 (BXPC-3): 15000 nM
0.5 | 75 | – | 7 | 19 | 15 | -4 | 26 | 31 | 16 | 5 | – | 6 | 7 | 50 | – | 29 | – | OCC[C@@H](Nc1ncnc2[nH]c(-c3ccccc3)cc12)c1ccccc1 | – | – | –

Second part, the compound before the results:

Compound | IC50 [1] [nM] | IC50 (BaF3) [nM] | IC50 [2] [nM] | inhibition [3] [%] | inhibition [4] [%] | inhibition [5] [%] | inhibition [6] [%] | inhibition [7] [%] | inhibition [8] [%] | inhibition [9] [%] | inhibition [10] [%] | inhibition [11] [%] | inhibition [12] [%] | inhibition [13] [%] | inhibition [14] [%] | inhibition [15] [%] | inhibition [16] [%] | IC50 (A549) [nM] | IC50 (PC-9) [nM] | IC50 (AU565) [nM] | further results
C#Cc1cccc(Nc2ncnc3cc(OCCOC)c(OCCOC)cc23)c1 [ERLOTINIB] | – | 87 | – | – | – | – | – | – | – | – | – | – | – | -3 | – | – | – | > 100000 | < 100 | 3300 | Papp A→B at 2 h, 10 µM [17]: 38.8 ×10⁻⁶ cm/s; IC50 [18]: > 25000 nM; IC50 (C-33-A): 900 nM; IC50 (CAL-27): 1300 nM; IC50 (FaDu): > 11000 nM; IC50 (K562): 55000 nM; IC50 (BXPC-3): 1900 nM; inhibition [19]: -5%
CN(C)CCNCc1ccc(-c2cc3c(N[C@H](CO)c4ccccc4)ncnc3[nH]2)cc1F | 0.1 | 142 | – | 17 | 17 | 74 | 12 | 55 | 36 | 13 | 13 | – | -5 | 1 | 81 | – | 81 | – | – | – | –
